Reference: paper PMC7034070, “Synthesis, anti-inflammatory, cytotoxic, and COX-1/2 inhibitory activities of cyclic imides bearing 3-benzenesulfonamide, oxime, and β-phenylalanine scaffolds: a molecular docking study” (Journal of Enzyme Inhibition and Medicinal Chemistry, 2020)
Values joined by “and” are separate entries in the source; they are usually repeats but may differ in a detail not shown here. Equal entries are not always repeated.

Experiments:
[1] = system: carrageenan induced rat paw oedema; experiment: rat carrageenan-induced foot paw oedema model; format: in vivo; conditions: for Mean % increase in paw weight ± SEM / % Inhibition of paw oedema from control group: 2 h after carrageenan; for Mean % increase in paw weight ± SEM: control group 165.6 ± 1.6; for % Inhibition of paw oedema from control group: single dose screen (Table 1)
Method: Anti-inflammatory assessment of the newly synthesised compounds was carried out using an in vivo rat carrageenan-induced foot paw oedema model, as reported previously[16]^,[17].

mice = experiment: Ulcerogenicity measurement; format: in vivo
Method: Ulcerogenicity was evaluated according to a previously reported method[6]^a,[17]^,[18]. The number and total length of the ulcers for each animal were measured and their averages were calculated and used as the ulcer indices.

59 cancer cell lines = experiment: full NCI 59 cell line panel assay, single dose; format: cell-based; conditions: one dose 10.0 μM, 59 cell lines
[2] = system: NCI-H522 (NSC Lung Cancer); experiment: NCI 59 cell line panel, single dose; format: cell-based; conditions: NCI-H522, one dose 10.0 μM
HL-60(TB) (Leukaemia) = experiment: NCI 59 cell line panel, single dose; format: cell-based; conditions: one dose 10.0 μM
TK-10 (Renal Cancer) = experiment: NCI 59 cell line panel, single dose; format: cell-based; conditions: TK-10, one dose 10.0 μM
COX-1 = biological target: T1, COX-1 (Ovis aries, UniProt P05979); experiment: colorimetric COX (ovine) inhibitor screening assay kit; format: biochemical; conditions: ovine COX-1, mean of two determinations
T1 construct: purchased Cayman Chemicals Inc., Ann Arbour, MI
T1 sequence (P05979 25-600): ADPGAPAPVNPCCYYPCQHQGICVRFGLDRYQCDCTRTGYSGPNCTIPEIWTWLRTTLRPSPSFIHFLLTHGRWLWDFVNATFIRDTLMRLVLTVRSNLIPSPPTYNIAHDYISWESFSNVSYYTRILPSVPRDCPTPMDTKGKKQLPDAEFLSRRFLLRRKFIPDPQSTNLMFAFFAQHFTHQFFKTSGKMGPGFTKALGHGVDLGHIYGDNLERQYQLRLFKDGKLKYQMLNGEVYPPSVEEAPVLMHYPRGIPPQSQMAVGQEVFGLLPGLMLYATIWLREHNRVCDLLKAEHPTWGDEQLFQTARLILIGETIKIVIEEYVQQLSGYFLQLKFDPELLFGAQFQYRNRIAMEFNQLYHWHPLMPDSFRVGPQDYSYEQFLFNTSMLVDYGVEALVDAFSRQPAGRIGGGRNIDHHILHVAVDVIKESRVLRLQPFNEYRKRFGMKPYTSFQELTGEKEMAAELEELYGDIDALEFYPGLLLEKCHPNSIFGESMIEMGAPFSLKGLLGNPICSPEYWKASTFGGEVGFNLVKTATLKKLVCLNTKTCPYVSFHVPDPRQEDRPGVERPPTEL
Excerpt: (§1) To determine the relative ability of the test compounds and reference drugs to inhibit COX-1/COX-2 isozymes, we used the colorimetric COX (ovine) inhibitor screening assay kit (Cayman Chemicals Inc., Ann Arbour, MI), according to the manufacturer’s instructions[3]^,[10]^,[11]^,[20].

COX-2 = biological target: T2, COX-2 (Ovis aries, UniProt P79208); experiment: as above; format: biochemical; conditions: for SI, selectivity index (COX-1 IC50/COX-2 IC50): ovine COX-1/COX-2; for IC50: ovine COX-2, mean of two determinations
T2 construct: purchased Cayman Chemicals Inc., Ann Arbour, MI
T2 sequence (P79208 17-603): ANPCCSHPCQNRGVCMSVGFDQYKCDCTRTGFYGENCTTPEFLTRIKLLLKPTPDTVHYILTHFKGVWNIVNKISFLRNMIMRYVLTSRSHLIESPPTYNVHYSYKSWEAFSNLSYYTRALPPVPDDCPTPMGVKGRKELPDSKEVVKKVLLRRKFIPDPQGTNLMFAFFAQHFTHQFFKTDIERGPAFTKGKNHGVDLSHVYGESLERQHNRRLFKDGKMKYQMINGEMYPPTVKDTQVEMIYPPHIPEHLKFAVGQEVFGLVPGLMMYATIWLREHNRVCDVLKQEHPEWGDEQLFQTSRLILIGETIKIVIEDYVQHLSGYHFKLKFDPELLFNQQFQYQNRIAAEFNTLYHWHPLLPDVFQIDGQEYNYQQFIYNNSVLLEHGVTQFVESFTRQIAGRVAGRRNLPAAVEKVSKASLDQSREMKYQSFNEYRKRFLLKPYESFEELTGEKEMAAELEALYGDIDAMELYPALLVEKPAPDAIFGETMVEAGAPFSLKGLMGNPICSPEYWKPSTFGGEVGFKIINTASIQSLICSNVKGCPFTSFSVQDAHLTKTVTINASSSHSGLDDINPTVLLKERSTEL
Excerpt: as §1

UO-31 (Renal Cancer) = experiment: NCI 59 cell line panel, single dose; format: cell-based; conditions: UO-31, one dose 10.0 μM
HOP-92 (NSC Lung Cancer) = experiment: NCI 59 cell line panel, single dose; format: cell-based; conditions: HOP-92, one dose 10.0 μM
[3] = system: NCI-H322M (NSC Lung Cancer); experiment: NCI 59 cell line panel, single dose; format: cell-based; conditions: one dose 10.0 μM
PC-3 (Prostate Cancer) = experiment: NCI 59 cell line panel, single dose; format: cell-based; conditions: PC-3, one dose 10.0 μM

| IC50 (COX-1) | SI, selectivity index (COX-1 IC50/COX-2 IC50) (COX-2) | IC50 (COX-2) | Compound | Mean % increase in paw weight ± SEM [1] | % Inhibition of paw oedema from control group [1] | PCE (positive cytotoxic effect: cell lines with growth inhibition >10% / total number of cell lines) (59 cancer cell lines) | GI% [2] | also measured |
| --- | --- | --- | --- | --- | --- | --- | --- | --- |
| > 50000 nM | >277.8 | 180 nM | NS(=O)(=O)c1cccc(N2C(=O)c3ccccc3C2=O)c1 [Compound 4] | 41.0 ± 0.2% | 77.8% and 77.8 ± 0.6% | 3/59 | 16.0% | Percentage inhibition of paw oedema from control group ([1]; dose 45 mg/kg): 65.0%; Percentage inhibition of paw oedema from control group ([1]; dose 65 mg/kg): 77.8%; Percentage inhibition of paw oedema from control group ([1]; dose 80 mg/kg): 86.2%; ED50 ([1]; from three graded doses (45, 65, 80 mg/kg)): 45.3 mg/kg; Average number of ulcers (mice; mice): 6; Mean sum of lengths of elongated ulcer (mice; mice, ± SEM): 4.7 ± 0.54 mm; level of ulcerogenic activity (in words) (mice; relative to diclofenac and celecoxib): ulcerogenic level similar to celecoxib and less than that of diclofenac; GI% (HL-60(TB) (Leukaemia)): 18%; GI% (TK-10 (Renal Cancer)): 11% |
| > 50000 nM | >55.6 | 900 nM | Cc1ccc2c(c1)C(=O)N(c1cccc(S(N)(=O)=O)c1)C2=O [Compound 5, 3-(5-Methyl-1,3-dioxoisoindolin-2-yl)benzenesulfonamide] | 78.1 ± 0.7% | 57.7% and 57.7 ± 0.5% | 5/59 | 11% | GI% (UO-31 (Renal Cancer)): 17%; GI% (HOP-92 (NSC Lung Cancer)): 11%; GI% [3]: 11%; GI% (PC-3 (Prostate Cancer)): 11%; melting point: 225 to 226 °C |
